Laboratory results as given in ChEMBL document CHEMBL1201862, “PubChem BioAssay data set” (2004).
The source made the active and inactive calls. For most assays here, no stated cut-off is given here; in the data, actives have a measured EC50 and inactives only a lower limit.

Assays:
[1] = cytotoxicity toward NIH3T3 fibroblasts, dose response, counter-screen, cell-based, ATP luminescence, mouse fibroblasts (AID 2010); format: functional;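 further: cells exposed to compound for about 90 hours before reading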
INS1 = assay: beta cell apoptosis inhibitors, cytokine rescue, dose response, luminescence, retest (AID 449756); format: functional, cell-based; conditions: Rattus norvegicus;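 further: cell death triggered by IL-1 beta plus TNF-alpha plus IFN-gamma mixture; protective hits raise ATP signal compared with cytokine alone wells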
[2] = inhibitors of intracellular T. cruzi replication, confirmation, NIH3T3 host cells, beta-gal luminescence (AID 2044); format: functional, cell-based;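 further: intracellular parasites grown in NIH/3T3 mouse fibroblasts as host cells; luminescent beta-galactosidase reporter signal from transgenic T. cruzi replicating inside host cells; inhibitors lower the luminescence signal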
[3] = molecular target: T1, Corticotropin-releasing factor receptor 2/Corticotropin-releasing factor-binding protein (Homo sapiens, UniProt P24387+Q13324); assay: Dose Response confirmation of uHTS hits for small molecule antagonists of the CRF-binding protein and CRF-R2 receptor complex.; format: functional; conditions: read-out: IC50_Mean
T1 sequence (Q13324 whole entry): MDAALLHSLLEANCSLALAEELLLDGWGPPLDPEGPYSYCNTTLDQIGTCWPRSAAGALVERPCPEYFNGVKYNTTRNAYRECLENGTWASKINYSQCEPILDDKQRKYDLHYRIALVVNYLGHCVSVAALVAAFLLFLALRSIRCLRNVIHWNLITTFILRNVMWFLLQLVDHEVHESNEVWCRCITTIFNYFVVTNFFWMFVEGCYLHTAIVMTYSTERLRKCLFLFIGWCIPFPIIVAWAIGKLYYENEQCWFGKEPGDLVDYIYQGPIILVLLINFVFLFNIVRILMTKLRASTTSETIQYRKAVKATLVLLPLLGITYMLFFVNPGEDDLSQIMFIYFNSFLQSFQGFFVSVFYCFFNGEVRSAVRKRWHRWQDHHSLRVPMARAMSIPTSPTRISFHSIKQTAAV
T1 sequence (P24387 whole entry): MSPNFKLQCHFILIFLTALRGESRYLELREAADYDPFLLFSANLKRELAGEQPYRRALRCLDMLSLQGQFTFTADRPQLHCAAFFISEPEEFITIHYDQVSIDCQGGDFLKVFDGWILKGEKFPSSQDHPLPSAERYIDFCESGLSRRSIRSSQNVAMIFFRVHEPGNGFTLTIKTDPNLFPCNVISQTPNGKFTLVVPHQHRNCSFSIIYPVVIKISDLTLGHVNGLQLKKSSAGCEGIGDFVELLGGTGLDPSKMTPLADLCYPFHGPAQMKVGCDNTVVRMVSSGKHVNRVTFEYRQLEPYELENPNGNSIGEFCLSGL

[4] = molecular target: T1, Corticotropin-releasing factor receptor 2/Corticotropin-releasing factor-binding protein; assay: activators of CRF receptor 2 with binding protein – uHTS hits, confirmation (AID 602473); format: functional; conditions: read-out: EC50_Mean
Protein RecA = molecular target: T2, Protein RecA (Mycobacterium tuberculosis, UniProt P9WHJ3); assay: Fluorescence Cell-Free Homogeneous Dose Retest to Identify Inhibitors of RecA-Intein Splicing Activity. [Related pubchem assays (depositor defined):AID2097, AID2223, AID489010, AID492950]; format: functional
T2 sequence (P9WHJ3 whole entry): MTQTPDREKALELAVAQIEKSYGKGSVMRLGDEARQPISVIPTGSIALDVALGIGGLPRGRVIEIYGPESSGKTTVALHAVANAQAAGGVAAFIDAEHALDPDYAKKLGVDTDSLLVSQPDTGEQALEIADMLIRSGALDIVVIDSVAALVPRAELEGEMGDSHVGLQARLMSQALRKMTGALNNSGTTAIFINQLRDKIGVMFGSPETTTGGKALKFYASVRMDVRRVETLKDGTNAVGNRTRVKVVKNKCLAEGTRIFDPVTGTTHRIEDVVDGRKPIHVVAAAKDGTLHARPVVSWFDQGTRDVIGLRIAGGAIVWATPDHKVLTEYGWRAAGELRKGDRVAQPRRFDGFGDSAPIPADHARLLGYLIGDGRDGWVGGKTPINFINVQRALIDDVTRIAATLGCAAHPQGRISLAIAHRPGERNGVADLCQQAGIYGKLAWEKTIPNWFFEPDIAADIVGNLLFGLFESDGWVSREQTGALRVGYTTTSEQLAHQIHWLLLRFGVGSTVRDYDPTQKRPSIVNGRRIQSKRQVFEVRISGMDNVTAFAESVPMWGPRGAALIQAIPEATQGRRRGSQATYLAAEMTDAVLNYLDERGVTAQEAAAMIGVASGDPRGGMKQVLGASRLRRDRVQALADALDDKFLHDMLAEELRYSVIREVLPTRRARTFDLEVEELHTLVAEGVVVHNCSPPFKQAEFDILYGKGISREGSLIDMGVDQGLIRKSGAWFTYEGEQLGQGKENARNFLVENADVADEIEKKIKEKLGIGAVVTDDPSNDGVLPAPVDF

[5] = molecular target: T3, Replicative DNA helicase DnaB (Mycobacterium tuberculosis, UniProt P9WMR3); assay: DnaB intein splicing inhibitors, dose response, biochemical, cell-free fluorescence (AID 449749); format: functional
T3 sequence (P9WMR3 whole entry): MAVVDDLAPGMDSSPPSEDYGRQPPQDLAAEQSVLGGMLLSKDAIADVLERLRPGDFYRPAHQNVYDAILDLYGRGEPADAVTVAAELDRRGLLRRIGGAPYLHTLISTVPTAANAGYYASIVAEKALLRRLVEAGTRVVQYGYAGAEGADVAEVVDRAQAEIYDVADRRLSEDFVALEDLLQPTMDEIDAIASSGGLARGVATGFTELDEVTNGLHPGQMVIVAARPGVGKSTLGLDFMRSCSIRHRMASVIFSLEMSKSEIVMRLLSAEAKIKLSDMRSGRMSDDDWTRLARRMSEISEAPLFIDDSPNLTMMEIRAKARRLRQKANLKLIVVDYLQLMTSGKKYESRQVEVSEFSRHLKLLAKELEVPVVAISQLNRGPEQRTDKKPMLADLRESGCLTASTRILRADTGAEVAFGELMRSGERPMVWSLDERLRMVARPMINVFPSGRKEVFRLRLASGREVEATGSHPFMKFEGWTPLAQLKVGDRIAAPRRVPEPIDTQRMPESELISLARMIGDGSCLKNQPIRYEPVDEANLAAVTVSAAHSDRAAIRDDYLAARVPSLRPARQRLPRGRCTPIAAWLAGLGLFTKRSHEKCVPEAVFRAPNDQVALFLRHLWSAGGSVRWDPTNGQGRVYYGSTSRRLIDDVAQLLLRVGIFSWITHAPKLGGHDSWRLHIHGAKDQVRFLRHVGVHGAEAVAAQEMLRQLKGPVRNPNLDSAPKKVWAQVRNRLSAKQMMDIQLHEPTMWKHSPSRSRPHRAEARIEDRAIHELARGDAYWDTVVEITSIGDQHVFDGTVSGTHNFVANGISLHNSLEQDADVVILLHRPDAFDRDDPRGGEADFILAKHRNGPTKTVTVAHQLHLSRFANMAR

[6] = molecular target: Luciferin 4-monooxygenase (Photinus pyralis, UniProt P08659); assay: firefly luciferase enzyme inhibitors, dose response, biochemical, luminescence (AID 1891)
[7] = Luminescence Cell-Based Dose Confirmation HTS to Identify Inhibitors of Platelet Dense Granule Release. [Related pubchem assays: 1663 (Primary HTS), 1678 (Summary of Project)]; format: functional
[8] = Luminescence Cell-Based Dose Retest to Confirm Inhibitors of Cancer Stem Cells. [Related pubchem assays (depositor defined):AID2717, AID2721]; format: functional; conditions: Homo sapiens
Cytochrome P450 2D6 = Cytochrome P450 2D6 (Homo sapiens, UniProt P10635);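 further: CYP2D6 member of a cytochrome P450 panel assay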
[9] = Luminescence Cell-Based Dose Response HTS to Identify Inhibitors of 5'UTR Stem-Loop Driven Prion Protein mRNA Translation in H4 Neuroglioblastoma Cells. [Related pubchem assays: 1827 (Project Summary), 1813 (Primary HTS)]; format: functional
[10] = inhibitors of SNCA 5'UTR-driven reporter translation, confirmation, H4 neuroglioma cells, luminescence (AID 1988); format: functional, cell-based
[11] = inhibitors of firefly luciferase expression or activity, dose response, H4 neuroglioma cells, luminescence (AID 1990); format: functional, cell-based
[12] = molecular target: T4, Rac GTPase-activating protein 1 (Homo sapiens, UniProt Q9H0H5); assay: MgcRacGAP GTPase-activating activity inhibitors, confirmation, biochemical, ADP Hunter fluorescence, primary and confirmatory (AID 624330); format: functional
T4 sequence (Q9H0H5 whole entry): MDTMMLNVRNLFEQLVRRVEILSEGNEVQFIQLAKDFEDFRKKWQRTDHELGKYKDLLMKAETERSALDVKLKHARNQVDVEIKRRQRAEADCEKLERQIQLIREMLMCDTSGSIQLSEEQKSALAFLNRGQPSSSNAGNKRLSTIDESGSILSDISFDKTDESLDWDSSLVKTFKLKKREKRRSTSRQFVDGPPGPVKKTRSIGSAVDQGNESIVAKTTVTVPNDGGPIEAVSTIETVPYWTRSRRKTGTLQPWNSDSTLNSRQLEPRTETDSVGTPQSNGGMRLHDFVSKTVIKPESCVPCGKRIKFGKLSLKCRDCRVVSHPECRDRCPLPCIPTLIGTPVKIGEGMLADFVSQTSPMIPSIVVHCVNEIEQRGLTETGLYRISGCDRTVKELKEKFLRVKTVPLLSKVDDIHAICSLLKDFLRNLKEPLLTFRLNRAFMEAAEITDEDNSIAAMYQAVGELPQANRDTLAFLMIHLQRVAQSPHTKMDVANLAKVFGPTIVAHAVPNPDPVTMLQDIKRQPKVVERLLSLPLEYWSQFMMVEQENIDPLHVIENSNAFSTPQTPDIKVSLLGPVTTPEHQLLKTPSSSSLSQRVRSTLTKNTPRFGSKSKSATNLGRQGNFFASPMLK

Chain of Luciferin 4-monooxygenase (P08659 whole entry): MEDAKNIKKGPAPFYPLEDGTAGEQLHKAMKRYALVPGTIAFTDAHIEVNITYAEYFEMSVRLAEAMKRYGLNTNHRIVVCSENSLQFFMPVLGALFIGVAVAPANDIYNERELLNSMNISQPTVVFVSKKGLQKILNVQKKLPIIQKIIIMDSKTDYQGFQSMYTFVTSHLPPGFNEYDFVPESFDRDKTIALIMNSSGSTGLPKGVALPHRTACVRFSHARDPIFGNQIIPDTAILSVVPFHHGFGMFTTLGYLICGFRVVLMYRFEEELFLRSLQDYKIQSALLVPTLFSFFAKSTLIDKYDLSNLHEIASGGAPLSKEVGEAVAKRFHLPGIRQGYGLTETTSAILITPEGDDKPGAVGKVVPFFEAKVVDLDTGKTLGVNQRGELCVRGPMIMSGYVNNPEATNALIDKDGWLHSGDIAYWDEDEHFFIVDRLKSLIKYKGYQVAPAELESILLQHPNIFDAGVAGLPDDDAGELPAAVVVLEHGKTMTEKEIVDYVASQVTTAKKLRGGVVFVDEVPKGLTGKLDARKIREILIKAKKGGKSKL
Chain of Cytochrome P450 2D6 (P10635 whole entry): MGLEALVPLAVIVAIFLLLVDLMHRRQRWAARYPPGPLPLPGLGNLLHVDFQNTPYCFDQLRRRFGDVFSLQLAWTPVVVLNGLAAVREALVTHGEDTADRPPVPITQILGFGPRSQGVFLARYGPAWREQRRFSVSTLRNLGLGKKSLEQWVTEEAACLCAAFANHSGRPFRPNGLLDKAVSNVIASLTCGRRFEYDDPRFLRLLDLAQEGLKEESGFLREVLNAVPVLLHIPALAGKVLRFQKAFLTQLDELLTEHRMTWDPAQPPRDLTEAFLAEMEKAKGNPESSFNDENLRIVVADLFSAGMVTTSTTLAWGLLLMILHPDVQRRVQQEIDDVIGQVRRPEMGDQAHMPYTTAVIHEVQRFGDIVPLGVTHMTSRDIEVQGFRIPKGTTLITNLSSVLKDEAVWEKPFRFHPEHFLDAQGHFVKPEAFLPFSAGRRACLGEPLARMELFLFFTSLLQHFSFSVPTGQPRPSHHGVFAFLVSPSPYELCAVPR

CCCN(CCC)C(=O)c1cc([N+](=O)[O-])cc2c1-c1ccc([N+](=O)[O-])cc1C2=C(C#N)C#N
EC50 [1]: 10.7 µM (active)
AC50 (INS1): 6.7 µM (active)
EC50 [2]: 1.62 µM (active)

NNC(=S)NC1CCS(=O)(=O)C1 (centres undefined)
IC50 [3]: > 47.1 µM (inactive)
EC50 [4]: > 53 µM (inactive)

CC1CCCCC1NC(=O)NC(=O)CCl (centres undefined)
EC50 (Protein RecA): 12.3 µM (active)
AC50 [5]: 22.5 µM (active)

COc1cc(CNc2ccccc2SC)ccc1O
EC50 [6]: > 112 µM (not active)
EC50 [7]: > 112 µM (not active)
IC50 [3]: > 47.1 µM (inactive)
EC50 [4]: > 53 µM (inactive)

Cc1n[nH]c2c1C(c1cccs1)C(C#N)=C(N)O2 (centres undefined)
EC50 (Protein RecA): 4.74 µM (active)
AC50 [5]: 24.7 µM (active)

CCCc1c(-c2ccc(O)cc2)nn(-c2ccc(O)cc2)c1-c1ccc(O)cc1 [PROPYLPYRAZOLETRIOL]
AC50 [8]: 3.78 µM (active)
AC50 (Cytochrome P450 2D6): 12.6 µM (inconclusive)
EC50 (Protein RecA): 4.88 µM (active)
AC50 [5]: 2.92 µM (active)

O=S1(=O)CCN(Cc2csc(-c3cccs3)n2)CC1
EC50 [6]: > 112 µM (not active)
EC50 [7]: 17.9 µM (active)
AC50 (INS1): 145 µM (active)

COC(=O)c1ccccc1NC(=O)C(C)n1nc(C)c2c(C)n(-c3ccccc3)nc2c1=O (centres undefined)
EC50 [9]: 20.1 µM (active)
EC50 [10]: 22.9 µM (active)
EC50 (Protein RecA): > 380 µM (inactive)
EC50 [11]: 25.5 µM (active)
AC50 [5]: 208 µM (active)

Cc1cccc(-n2c(C)cc(/C=N/n3cnnc3)c2C)c1
AC50 (INS1): 14.1 µM (active)

C=C[C@H](Cc1ccccc1)N(Cc1ccccc1)S(=O)(=O)N(Cc1ccccc1)[C@H](C=C)Cc1ccccc1
AC50 (INS1): 4.47 µM (active)

COc1ccc(NC2CCCN(C(=O)CN3CCOC3=O)C2)cc1 (centres undefined)
IC50 [12]: 109 µM (active)

COc1cc(/C=N/NC(=O)C(=O)N2CCCC2)ccc1O
IC50 [12]: 26.7 µM (active)
